Patent US4743687A, “Pyridazo (1,2-a) (1,2) diazepine derivatives” (Hoffmann-La Roche Inc., priority 1985, dated 1988)

Target: T1, angiotensin converting enzyme (Oryctolagus cuniculus, UniProt P12822)
T1 sequence (P12822 34-1310): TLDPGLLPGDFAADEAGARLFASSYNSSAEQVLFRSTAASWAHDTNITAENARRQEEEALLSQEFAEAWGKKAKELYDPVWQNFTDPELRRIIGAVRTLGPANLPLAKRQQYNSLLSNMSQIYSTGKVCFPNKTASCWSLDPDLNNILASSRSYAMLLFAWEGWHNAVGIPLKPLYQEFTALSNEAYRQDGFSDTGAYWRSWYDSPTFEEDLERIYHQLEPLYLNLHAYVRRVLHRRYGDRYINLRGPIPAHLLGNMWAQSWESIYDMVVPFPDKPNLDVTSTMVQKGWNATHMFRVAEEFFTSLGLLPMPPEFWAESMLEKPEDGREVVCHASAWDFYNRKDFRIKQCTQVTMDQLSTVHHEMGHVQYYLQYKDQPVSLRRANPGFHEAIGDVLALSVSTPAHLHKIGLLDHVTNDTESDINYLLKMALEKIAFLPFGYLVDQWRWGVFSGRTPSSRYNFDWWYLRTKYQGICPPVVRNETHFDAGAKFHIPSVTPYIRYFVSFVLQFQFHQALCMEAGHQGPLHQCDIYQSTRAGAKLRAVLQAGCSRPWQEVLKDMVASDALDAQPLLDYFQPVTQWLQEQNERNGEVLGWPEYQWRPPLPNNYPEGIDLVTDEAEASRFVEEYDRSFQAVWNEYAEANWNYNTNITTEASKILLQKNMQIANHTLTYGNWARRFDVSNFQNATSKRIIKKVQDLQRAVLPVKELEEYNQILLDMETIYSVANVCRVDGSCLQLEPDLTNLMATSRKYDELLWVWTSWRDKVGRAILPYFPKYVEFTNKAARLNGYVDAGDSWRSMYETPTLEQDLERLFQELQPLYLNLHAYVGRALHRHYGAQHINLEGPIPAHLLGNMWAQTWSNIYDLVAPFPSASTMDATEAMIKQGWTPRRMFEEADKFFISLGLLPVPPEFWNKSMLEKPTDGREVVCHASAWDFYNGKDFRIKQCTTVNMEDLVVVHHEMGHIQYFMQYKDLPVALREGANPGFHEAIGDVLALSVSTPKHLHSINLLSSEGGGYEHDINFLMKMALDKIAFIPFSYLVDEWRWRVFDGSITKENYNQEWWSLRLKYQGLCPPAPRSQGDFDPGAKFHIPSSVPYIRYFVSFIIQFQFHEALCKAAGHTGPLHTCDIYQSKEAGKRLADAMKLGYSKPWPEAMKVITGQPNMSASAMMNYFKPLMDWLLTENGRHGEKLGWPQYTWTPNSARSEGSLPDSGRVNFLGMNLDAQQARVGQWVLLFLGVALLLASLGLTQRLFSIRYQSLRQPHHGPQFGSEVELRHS
Assay: in vitro inhibition of angiotensin converting enzyme (hippuryl-histidyl-leucine cleavage)
Assay type: biochemical
Settings: substrate hippuryl-histidylleucine 2 mM, pH 8.3, 24 minutes at 37° C.; esters cleaved by hog liver esterase before test
Procedure: The activity of the present compounds in inhibiting angiotensin converting enzyme in vitro can be determined by the following test.
The method used is based on the method of Cushman and Cheung (Biochem. Pharmacol., 20. 1637-1648) incorporating the modifications introduced by Hayakari et al (Anal. Biochem., 84. 361-369). The substrate (hippuryl-histidylleucine, 2 mM) is incubated with angiotensin converting enzyme in the presence or absence of various concentrations of test substance in potassium phosphate buffer (pH 8.3; 100 mM) containing sodium chloride (300 mM) for 24 minutes at 37° C. (total value 500 μl). (if the test substance is an ester, it is appropriate to cleave it by means of hog liver esterase before carrying out the test). The reaction is terminated by the addition of 3 ml of potassium phosphate buffer (pH 8.3; 200 mM) at 0° C. 2,4,6-Trichloro-s-triazine (3%) in 1.5 ml of dioxan is added and the mixture is agitated until the yellow chromophore has developed fully. The samples are then centrifuged to remove any precipitate which has formed. The yellow chromophore formed by the reaction of the 2,4,6-trichloro-s-triazine with free hippuric acid is measured spectrophotometrically at 382 nm. […]

Compound: O=C(O)[C@@H]1CCCN2CCC[C@H](CP(=O)(O)O)C(=O)N12 [Compound A, Octahydro9(S)--phosphonomethyl10-oxo-6H--pyridazo[1,2a][1,2]diazepine1(S)-carboxylic acid]
- IC50: 9.6 nM
